Where two headings read alike, the source gives them in different places.
Key:
[1] = molecular target: T1, EGFR (Homo sapiens, UniProt P00533); experiment: Enzyme inhibitory activity on EGFR (time resolution fluorescence, biotinylated poly-Glu-Tyr substrate); assay type: biochemical
T1 construct: purchased Carna Biosciences, Inc; host or cells: insect cell expression system
Procedure, shortened: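 Insect-cell-expressed EGFR phosphorylated biotinylated poly-Glu-Tyr (4:1) for 60 min at room temperature in TBS with MgCl2, MnCl2, Na3VO4 and BSA. Enzyme 250 ng/ml, substrate 3.125 μg/ml and ATP 125 μM as working solutions. EDTA stop; Eu anti-phosphotyrosine/streptavidin-XL time-resolved fluorescence read; 10-point 4-fold dilutions.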

[2] = test system: NCI-N87 cells (human stomach cancer cell strain); experiment: in vivo anti-tumor assessment, NCI-N87 cells transplanted into mammary fat pad of nude mouse
Protocol: NCI-N87 cells (human stomach cancer cell strain) were transplanted into a mammary fat pad of a female nude mouse (BALB/cA Jcl-nu/nu, CLEA Japan, Inc) at 5×10^6 cells/mouse (day 0). On day 5, a long diameter and a short diameter of a tumor were measured with a caliper, and mice were divided into groups (N=6) so that a tumor size between groups became equal. A test compound (20, 80 mg/kg) suspended in a 0.5% methylcellulose (MC) solution was orally administered from day 5 on for 15 consecutive days, and the anti-tumor effect was expressed by a ratio (T/C %) of an average value of a tumor size between a compound-administered group (T) and a control (C, 0.5% MC) group on day 20.
Results of in vivo anti-tumor assessment of a compound VIII-11 are shown in Table 54, and results of in vivo anti-tumor assessment of a compound VIII-66 are shown in Table 55.

[3] = molecular target: T2, HER2 (Homo sapiens, UniProt P04626); experiment: Enzyme inhibitory activity on HER2 (time resolution fluorescence, biotinylated poly-Glu-Tyr substrate); assay type: biochemical
T2 construct: purchased Carna Biosciences, Inc; host or cells: insect cell expression system
Procedure, shortened: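 Insect-cell-expressed HER2 (1000 ng/ml working stock) with biotinylated poly-Glu-Tyr (4:1; 3.125 μg/ml stock) and ATP (290 μM solution) in TBS with MgCl2, MnCl2, Na3VO4 and BSA, 60 min at room temperature. 10-point 4-fold dilutions from a 1 mM top solution. Phosphotyrosine detected by TR-FRET with Eu-antibody and streptavidin-XL.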

[4] = test system: BT-474; experiment: In vitro cell proliferation inhibition, WST assay; assay type: cell-based, human; settings: BT-474 cells, cultured for 3 days, read-out: BT-474 (nM) proliferation inhibitory activity (IC50 value)
Protocol: Test of In Vitro Cell Proliferation Inhibition of Test Compound
As a human-derived cancer cell strain, BT-474 was used. Cells were all cultured in a 37° C., 5% CO2 incubator in a medium in which 10% bovine fetal serum (ICN) and 50 units ml penicillin/60 μg/ml streptomycin solution (GIBCO) were added to Dulbecco's Modified Essential Medium (DMEM, Nacalai Tesque, Inc).

[5] = day 20, 20 mg/kg orally for 15 consecutive days from day 5
[6] = day 20, 80 mg/kg orally for 15 consecutive days from day 5
[7] = enzyme reaction at room temperature for 60 minutes

T1 sequence (P00533 25-1210): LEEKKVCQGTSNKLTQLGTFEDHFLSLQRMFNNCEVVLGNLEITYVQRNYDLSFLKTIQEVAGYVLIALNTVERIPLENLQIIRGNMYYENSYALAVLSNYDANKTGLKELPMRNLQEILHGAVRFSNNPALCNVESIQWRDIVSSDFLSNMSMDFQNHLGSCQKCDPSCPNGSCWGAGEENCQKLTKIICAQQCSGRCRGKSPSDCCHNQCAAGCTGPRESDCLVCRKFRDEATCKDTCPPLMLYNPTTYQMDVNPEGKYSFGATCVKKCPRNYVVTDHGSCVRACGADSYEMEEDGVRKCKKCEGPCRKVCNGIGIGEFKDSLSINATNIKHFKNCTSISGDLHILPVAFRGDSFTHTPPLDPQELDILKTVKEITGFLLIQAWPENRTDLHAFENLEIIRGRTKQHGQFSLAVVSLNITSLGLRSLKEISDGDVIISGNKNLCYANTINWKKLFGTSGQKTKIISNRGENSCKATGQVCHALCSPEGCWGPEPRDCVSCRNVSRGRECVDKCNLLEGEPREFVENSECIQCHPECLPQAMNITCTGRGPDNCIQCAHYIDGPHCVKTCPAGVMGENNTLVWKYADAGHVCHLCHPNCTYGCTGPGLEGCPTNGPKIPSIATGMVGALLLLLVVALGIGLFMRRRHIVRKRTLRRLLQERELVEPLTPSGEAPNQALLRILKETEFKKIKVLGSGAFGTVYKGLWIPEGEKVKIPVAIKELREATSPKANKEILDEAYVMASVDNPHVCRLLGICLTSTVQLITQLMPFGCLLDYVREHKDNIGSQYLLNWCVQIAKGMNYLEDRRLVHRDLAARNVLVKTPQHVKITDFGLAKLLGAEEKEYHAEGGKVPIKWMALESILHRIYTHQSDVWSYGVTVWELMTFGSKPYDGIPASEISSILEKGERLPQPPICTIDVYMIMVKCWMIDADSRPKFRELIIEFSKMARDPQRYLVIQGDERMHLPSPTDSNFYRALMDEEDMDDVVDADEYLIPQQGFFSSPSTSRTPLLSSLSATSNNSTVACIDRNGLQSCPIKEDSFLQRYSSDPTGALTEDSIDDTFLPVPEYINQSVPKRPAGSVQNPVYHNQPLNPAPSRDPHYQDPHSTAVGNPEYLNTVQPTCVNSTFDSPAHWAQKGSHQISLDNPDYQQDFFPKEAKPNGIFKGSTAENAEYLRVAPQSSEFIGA
T2 sequence (P04626 23-1255): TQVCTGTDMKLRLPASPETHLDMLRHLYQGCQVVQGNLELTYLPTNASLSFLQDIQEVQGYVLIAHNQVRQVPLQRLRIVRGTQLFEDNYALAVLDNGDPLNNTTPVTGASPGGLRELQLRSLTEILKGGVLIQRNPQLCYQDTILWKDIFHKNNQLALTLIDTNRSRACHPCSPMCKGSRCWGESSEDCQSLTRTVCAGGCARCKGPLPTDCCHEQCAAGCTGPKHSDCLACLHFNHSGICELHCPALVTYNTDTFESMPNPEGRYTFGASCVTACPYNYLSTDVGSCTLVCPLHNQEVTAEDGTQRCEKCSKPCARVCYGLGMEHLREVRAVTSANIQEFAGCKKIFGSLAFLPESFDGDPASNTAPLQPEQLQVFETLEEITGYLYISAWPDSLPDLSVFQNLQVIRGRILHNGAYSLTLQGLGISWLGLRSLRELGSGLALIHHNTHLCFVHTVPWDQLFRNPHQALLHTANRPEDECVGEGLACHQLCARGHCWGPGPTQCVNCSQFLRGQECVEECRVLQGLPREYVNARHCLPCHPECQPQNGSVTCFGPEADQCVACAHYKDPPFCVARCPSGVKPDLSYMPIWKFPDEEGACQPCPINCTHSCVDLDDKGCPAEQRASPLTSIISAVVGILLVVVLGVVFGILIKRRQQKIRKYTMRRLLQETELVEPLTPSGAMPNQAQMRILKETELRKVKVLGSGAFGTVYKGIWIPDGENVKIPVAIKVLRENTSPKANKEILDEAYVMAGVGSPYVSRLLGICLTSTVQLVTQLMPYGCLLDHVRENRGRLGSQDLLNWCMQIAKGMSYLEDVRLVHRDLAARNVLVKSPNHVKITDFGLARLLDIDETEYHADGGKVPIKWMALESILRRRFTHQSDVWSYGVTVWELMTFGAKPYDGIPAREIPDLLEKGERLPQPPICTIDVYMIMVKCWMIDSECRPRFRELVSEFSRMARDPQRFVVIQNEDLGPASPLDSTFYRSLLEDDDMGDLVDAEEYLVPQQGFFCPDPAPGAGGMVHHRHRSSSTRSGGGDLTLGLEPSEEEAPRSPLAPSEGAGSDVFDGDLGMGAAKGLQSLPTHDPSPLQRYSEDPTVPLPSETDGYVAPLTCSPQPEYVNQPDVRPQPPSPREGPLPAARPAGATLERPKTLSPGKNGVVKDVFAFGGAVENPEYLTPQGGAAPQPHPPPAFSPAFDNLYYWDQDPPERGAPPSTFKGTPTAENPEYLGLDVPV

| IC50 ([4]; Homo sapiens, BT-474, 72 h) [nM] | IC50 [1, 7] [nM] | IC50 [3, 7] [nM] | SMILES | other results |
| --- | --- | --- | --- | --- |
| 26 |  |  | CC#C/C(=N\OCCN1CCCC1)c1ccc2ncnc(Nc3ccc(OCc4cccc(F)c4)c(Cl)c3)c2c1 [VIII-11] | IC50 ([1]; EGFR purified from insect cell expression system, ATP solution 125 μM, room temperature, 60 minutes): 43 nM; Mean of tumor size ([2]; day 5 (start of administration, grouping), 20 mg/kg administrated group, oral, N=6): 197 mm^3; Mean of tumor size ([2]; day 5 (start of administration, grouping), 80 mg/kg administrated group, oral, N=6): 197 mm^3; Mean of tumor size [2, 5]: 356 mm^3; T/C % (ratio of average tumor size, compound-administered group vs control group) [2, 5]: 54%; Mean of tumor size [2, 6]: 193 mm^3; T/C % (ratio of average tumor size, compound-administered group vs control group) [2, 6]: 29%; IC50 ([3]; HER2 purified from insect cell expression system, ATP solution 290 μM, room temperature, 60 minutes): 45 nM |
| 79 | 7.3 | 5.8 | CC#C/C(=N\OC[C@H]1CNC[C@@H](C)O1)c1ccc2ncnc(Nc3ccc(OCc4ccccn4)c(Cl)c3)c2c1 [VIII-177] |  |
| 36 | 8.1 | 8.2 | CC#C/C(=N\OC[C@H]1CNC[C@H](C)O1)c1ccc2ncnc(Nc3ccc(OCc4ccccn4)c(Cl)c3)c2c1 [VIII-178] |  |
| 48 | 4.6 | 5 | CC#C/C(=N\OC[C@@H]1CNCC(=O)N1)c1ccc2ncnc(Nc3ccc(OCc4ccccn4)c(Cl)c3)c2c1 [VIII-179] |  |
| 5 | 7.8 | 6 | CNCCO/N=C(\C#CCOC)c1ccc2ncnc(Nc3ccc(OCc4ccccn4)c(Cl)c3)c2c1 [VIII-180] |  |
| 20 | 4.7 | 7.3 | CC#C/C(=N\OCCNC)c1ccc2ncnc(Nc3ccc(OCc4ccccn4)c(Cl)c3)c2c1 [VIII-182] |  |
| 10 | 7.1 | 8.3 | CC#C/C(=N\OCCNC)c1ccc2ncnc(Nc3ccc4c(cnn4Cc4cccc(F)c4)c3)c2c1 [VIII-183] |  |
| 9 | 10 | 7 | CC#C/C(=N\OCCNCCNC(C)=O)c1ccc2ncnc(Nc3ccc4c(cnn4Cc4cccc(F)c4)c3)c2c1 [VIII-184] |  |
| 12 | 6.8 | 12.5 | CC#C/C(=N\OCCNCCNS(C)(=O)=O)c1ccc2ncnc(Nc3ccc4c(cnn4Cc4cccc(F)c4)c3)c2c1 [VIII-185] |  |
| 29 | 19 | 26 | CC#C/C(=N\OCCNCCN(C)S(C)(=O)=O)c1ccc2ncnc(Nc3ccc4c(cnn4Cc4cccc(F)c4)c3)c2c1 [VIII-186] |  |
| 24 | 10 | 9 | CC#C/C(=N\OCCNCCOC(N)=O)c1ccc2ncnc(Nc3ccc4c(cnn4Cc4cccc(F)c4)c3)c2c1 [VIII-187] |  |
| 40 | 20 | 30 | CC#C/C(=N\OCCNC[C@H]1CCCO1)c1ccc2ncnc(Nc3ccc4c(cnn4Cc4cccc(F)c4)c3)c2c1 [VIII-188] |  |
| 25 | 17 | 27 | CC#C/C(=N\OCCNC[C@@H]1CCCO1)c1ccc2ncnc(Nc3ccc4c(cnn4Cc4cccc(F)c4)c3)c2c1 [VIII-189] |  |
| 14 | 8.9 | 11.1 | CC#C/C(=N\OCCNC[C@H]1CCC(=O)N1)c1ccc2ncnc(Nc3ccc4c(cnn4Cc4cccc(F)c4)c3)c2c1 [VIII-190] |  |
| 33 | 17 | 42 | CC#C/C(=N\OCCNC[C@@H]1COC(=O)N1)c1ccc2ncnc(Nc3ccc4c(cnn4Cc4cccc(F)c4)c3)c2c1 [VIII-191] |  |
| 24 | 6.2 | 14.2 | CC#C/C(=N\OCCN(CC)CCOC)c1ccc2ncnc(Nc3ccc4c(cnn4Cc4cccc(F)c4)c3)c2c1 [VIII-192] |  |
| 25 | 14 | 15 | CC#C/C(=N\OCCN1CC[C@@H](OC(N)=O)C1)c1ccc2ncnc(Nc3ccc4c(cnn4Cc4cccc(F)c4)c3)c2c1 [VIII-193] |  |
|  | 8.6 | 13 | CC#C/C(=N\OC[C@@H]1C[C@H](O)CN1)c1ccc2ncnc(Nc3ccc4c(cnn4Cc4cccc(F)c4)c3)c2c1 [VIII-194] | IC50 [4]: 25 nM |
| 29 | 45 | 43 | CC#C/C(=N\OCCN1CCOCC1)c1ccc2ncnc(Nc3ccc4c(cnn4Cc4cccc(F)c4)c3)c2c1 [VIII-195] |  |
| 28 | 11 | 20 | CC#C/C(=N\OCCN1CCNC(=O)C1)c1ccc2ncnc(Nc3ccc4c(cnn4Cc4cccc(F)c4)c3)c2c1 [VIII-196] |  |

| IC50 ([4]; Homo sapiens, BT-474, 72 h) [nM] | IC50 [1, 7] [nM] | IC50 [3, 7] [nM] | SMILES | other results |
| --- | --- | --- | --- | --- |
| 14 | 9 | 21 | CC#C/C(=N\OC[C@@H]1COCCN1)c1ccc2ncnc(Nc3ccc4c(cnn4Cc4cccc(F)c4)c3)c2c1 [VIII-197] |  |
| 10 | 3.6 | 4.6 | CC#CC(=NOCC1CNCCN1)c1ccc2ncnc(Nc3ccc4c(cnn4Cc4cccc(F)c4)c3)c2c1 (stereo not drawn) [VIII-198] |  |
| 33 | 6.3 | 5.2 | CNCCO/N=C(\C#CCOC)c1ccc2ncnc(Nc3ccc4c(cnn4Cc4cccc(F)c4)c3)c2c1 [VIII-199] |  |
| 31 | 17 | 13 | CC#C/C(=N\OC[C@@H](COC)NC)c1ccc2ncnc(Nc3ccc(S(=O)(=O)c4ccccc4)cc3)c2c1 [VIII-205] |  |
| 68 | 21 | 17 | CC#C/C(=N\OC[C@@H]1COCCN1)c1ccc2ncnc(Nc3ccc(S(=O)(=O)c4ccccc4)cc3)c2c1 [VIII-207] |  |
| 27 | 28 | 23 | CNCCO/N=C(\C#CCOC)c1ccc2ncnc(Nc3ccc(S(=O)(=O)c4ccccc4)cc3)c2c1 [VIII-208] |  |
| 19 | 38 | 30 | COCC#C/C(=N\OC[C@@H]1COCCN1)c1ccc2ncnc(Nc3ccc(S(=O)(=O)c4ccccc4)cc3)c2c1 [VIII-209] |  |
| 31 | 42 | 14 | CC#C/C(=N\OCCNC)c1ccc2ncnc(Nc3ccc(Oc4ccc(C)nc4)c(C)c3)c2c1 [VIII-210] |  |
| 16 | 23 | 18 | CC#C/C(=N\OCCNC)c1ccc2ncnc(Nc3ccc(COc4cccc(F)c4)c(Cl)c3)c2c1 [VIII-211] |  |
| 33 | 18 | 25 | CC#C/C(=N\OCCNC)c1ccc2ncnc(Nc3ccc(Sc4ccccc4)cc3)c2c1 [VIII-213] |  |
| 25 | 4.5 | 3.3 | CC#C/C(=N\OCCNC)c1ccc2ncnc(Nc3ccc(S(=O)(=O)c4ccccc4)cc3)c2c1 [VIII-214] |  |
| 32 | 22 | 7 | CC#C/C(=N\OCCNC)c1ccc2ncnc(Nc3ccc(OCc4cccnc4)c(Cl)c3)c2c1 [VIII-216] |  |
| 41 | 76 | 22 | CC#C/C(=N\OCC1COCCN1)c1ccc2ncnc(Nc3ccc(Oc4ccc(C)nc4)c(C)c3)c2c1 (stereo not drawn) [VIII-218] |  |
| 45 | 26 | 20 | CC#C/C(=N\OCC1COCCN1)c1ccc2ncnc(Nc3ccc(S(=O)(=O)c4ccccc4)cc3)c2c1 (stereo not drawn) [VIII-219] |  |
| 23 | 263 | 449 | CC#C/C(=N\OCC1COCCN1)c1ccc2ncnc(Nc3ccc(COc4cccc(F)c4)c(Cl)c3)c2c1 (stereo not drawn) [VIII-220] |  |
|  | 143 | 168 | CC#C/C(=N\OCC1COCCN1)c1ccc2ncnc(Nc3ccc(COc4cccc(F)c4)c(Cl)c3)c2c1 (stereo not drawn) [VIII-221] | IC50 [4]: 15 nM |
| 6 | 253 | 217 | CC#C/C(=N\OCC(N)=O)c1ccc2ncnc(Nc3ccc(OCc4cccc(F)c4)c(Cl)c3)c2c1 [VIII-223] |  |
| 1.2 | 122 | 118 | CC#C/C(=N\OCC(=O)NCCO)c1ccc2ncnc(Nc3ccc(OCc4cccc(F)c4)c(Cl)c3)c2c1 [VIII-224] |  |
| 7 | 47 | 70 | CC#C/C(=N\OCC(=O)NCCOS(C)(=O)=O)c1ccc2ncnc(Nc3ccc(OCc4cccc(F)c4)c(Cl)c3)c2c1 [VIII-225] |  |
| 5 | 20 | 10 | CC#C/C(=N\OCC(=O)NCCN(C)C)c1ccc2ncnc(Nc3ccc(OCc4cccc(F)c4)c(Cl)c3)c2c1 [VIII-226] |  |
